Experiment [1] can be described thus: Phage ELISA for skin binding affinity (Example 14). Further details: species or system pig. To be noted: 1×10^11 pfu of phage, 37° C. 15 min, TBST-0.5% washes; anti-M13 HRP conjugate; mean of at least three replicates. The protocol:
(§1) Phage-peptide clones identified in Examples 11-13 were amplified by infecting fresh host cells (E. coli ER2338). The pigskin-bottom 96-well apparatus system described in Examples 11-13 was used for the ELISA procedure. For each clone to be tested, the pigskin well was incubated for 1 h at room temperature with 400 μL of blocking buffer, consisting of 2% non-fat dry milk (Schleicher & Schuell, Inc.) in TBS. The blocking buffer was removed by inverting the systems and blotting them dry with paper towels. The systems were rinsed 6 times with wash buffer consisting of TBST-0.05%. The wells were filled with 100 μL of TBST-0.5% containing 1 mg/mL of BSA and 1×10^11 pfu of phage. The samples were incubated at 37° C. for 15 min with slow shaking. The non-binding phage was removed by washing the wells 10 to 20 times with TBST-0.5%. Then, 100 μL of horseradish peroxidase/anti-M13 antibody conjugate (Amersham USA, Piscataway, N.J.), diluted 1:500 in the blocking buffer, was added to each well and incubated for 1 h at room temperature. The conjugate solution was removed and the wells were washed 6 times with TBST-0.05%. TMB substrate (200 μL), obtained from Pierce Biotechnology (Rockford, Ill.) was added to each well and the color was allowed to develop for between 5 to 30 min, typically for 10 min, at room temperature. Then, stop solution (200 μL of 2 M H2SO4) was added to each well and the solution was transferred to a 96-well plate and the absorbance at 450 nm (A450) was measured using a microplate spectrophotometer (Molecular Devices, Sunnyvale, Calif.). The resulting absorbance values, reported as the mean of at least three replicates, and the standard error of the mean (SEM) are given in Table 2.
A general note: An ELISA detects its analyte on a solid surface through an enzyme-linked reagent.

For experiment [2] the following is noted: stated as known; cited from earlier work.
Experiment [3] can be described thus: Phage ELISA for skin binding affinity after body wash treatment (Example 15). The note with it: mean of at least three replicates; for Body Wash A450 ± SEM: 200 μL Johnson's Head-to-Toe Baby Wash for 30 min after phage binding; for Buffer Wash A450 ± SEM: procedure of Example 14. Further details: species or system pig. How it is done: as §1
The ELISA procedure described in Example 14 was used with the following modification. After removal of the non-binding phage peptide solution from the wells, 200 μL of Johnson's Head-to-Toe Baby Wash was added to the wells and was incubated for 30 min. The washes and color development steps described in Example 14 were followed. For the buffer wash samples, the same procedure described in Example 14 was used. […] The resulting absorbance values, reported as the mean of at least three replicates, and the standard error of the mean are given in Table 3.

Regarding “ASCPSASHADPCAH (Body wash-resistant skin-binding peptide) [Skin-cys-2]”, the “A450 ± SEM” value in experiment [1] turned out to be 1.184 ± 0.044. “D21: hair-binding phage peptide used as control in Example 15, known low binding affinity for skin (RTNAADHPAAVT; Hair-binding sequence) [Clone D21, reference compound]”: the “binding affinity for skin” value in experiment [2] is on record as “low binding affinity for skin”. Further, in experiment [3], the “Body Wash A450 ± SEM” value is 0.549 ± 0.053 and the “Buffer Wash A450 ± SEM” value was 0.297 ± 0.004. In the case of “DACSGNGHPNNCDR (Body wash-resistant skin-binding peptide) [Skin-cys-4]”, in experiment [1], the “A450 ± SEM” value amounted to 0.852 ± 0.033. As to “DWCDTIIPGRTCHG (Body wash-resistant skin-binding peptide) [Skin-cys-6]”, the “A450 ± SEM” value in experiment [1] is on record as 1.657 ± 0.047.

In the case of “GSSTVGRPSLYE (Body wash-resistant skin-binding peptide) [Skin-12mer-6]”, in experiment [1], the “A450 ± SEM” value stood at 0.677 ± 0.104. On to “IB5: hair-binding phage peptide (Huang et al.) used as control, known low binding affinity for skin (TPPELLHGDPRS; Hair-binding peptide)”, for which the “binding affinity for skin” value in experiment [2] is given as “low binding affinity for skin”. In experiment [3], the “Body Wash A450 ± SEM” value came to 0.453 ± 0.035 and the “Buffer Wash A450 ± SEM” value is on record as 0.202 ± 0.010. Regarding “NHSNWKTAADFL (Body wash-resistant skin-binding peptide) [Skin-12mer-4]”, the “A450 ± SEM” value in experiment [1] was 0.874 ± 0.039.

In the case of “NLCDSARDSPRCKV (Body wash-resistant skin-binding peptide) [Skin-cys-3]”, the “A450 ± SEM” value in experiment [1] was 0.927 ± 0.044. With “NQAASITKRVPY (Body wash-resistant skin-binding peptide) [Skin-12mer-5]”, the “A450 ± SEM” value in experiment [1] is 0.391 ± 0.036. Regarding “QLSYHAYPQANHHAP (Body wash-resistant skin-binding peptide) [Skin-15mer-1]”, in experiment [1], the “A450 ± SEM” value came out at 1.264 ± 0.166. Besides, in experiment [3], the “Body Wash A450 ± SEM” value turned out to be 1.447 ± 0.178 and the “Buffer Wash A450 ± SEM” value is reported as 1.031 ± 0.045.

As to “SDTISRLHVSMT (Body wash-resistant skin-binding peptide) [Skin-12mer-7]”, the “A450 ± SEM” value in experiment [1] worked out at 1.134 ± 0.093. Regarding “SGCHLVYDNGFCDH (Body wash-resistant skin-binding peptide) [Skin-cys-1]”, the “A450 ± SEM” value in experiment [1] is 1.385 ± 0.046. In addition, in experiment [3], the “Body Wash A450 ± SEM” value is given as 1.444 ± 0.293 and the “Buffer Wash A450 ± SEM” value was 1.182 ± 0.070.

“SPLTVPYERKLL (Body wash-resistant skin-binding peptide) [Skin-12mer-8]”: the “A450 ± SEM” value in experiment [1] is recorded as 0.433 ± 0.05. On to “SPYPSWSTPAGR (Body wash-resistant skin-binding peptide) [Skin-12mer-9]”, for which, in experiment [1], the “A450 ± SEM” value is recorded as 1.146 ± 0.131. Further, in experiment [3], the “Body Wash A450 ± SEM” value stood at 2.265 ± 0.132 and the “Buffer Wash A450 ± SEM” value came to 1.298 ± 0.11. Turning to “SVSVGMKPSPRP (Body wash-resistant skin-binding peptide) [Skin-12mer-2]”, the “A450 ± SEM” value in experiment [1] is 0.818 ± 0.108. Same read-out and setting: to “TMGFTAPRFPHY (Body wash-resistant skin-binding peptide) [Skin-12mer-1]” belongs 0.506 ± 0.097; to “VQPITNTRYEGG (Body wash-resistant skin-binding peptide) [Skin-12mer-10]”, 0.418 ± 0.036.

As to “WPMHPEKGSRWS (Body wash-resistant skin-binding peptide) [Skin-12mer-11]”, in experiment [1], the “A450 ± SEM” value amounted to 0.81 ± 0.038.

(Values after patent US20060199206A1, “Method for identifying skin care composition-resistant skin-binding peptides” (priority 2005, published 2006).)
